Source: patent US6340755B1, “5H-Pyrano[2,3-d: 6,5-d']dipyrimidine derivatives having an antibacterial, antiviral and immuno-modulating activity” (Natural Drug Sciences LLC, priority 2000, dated 2002)

What was measured:
[1] = system: herpes simplex type I (VPG-I/Leningrad/248/88); test: Activity on herpes simplex virus: cytopathic action of the virus on Vero cells; type: cell-based; conditions: 36 hours; for number of cells in 100 fields (unchanged cells): cell control 12000
Method: (§1) The antiviral activity was studied relative to the virus herpes simplex type I (VPG-I/Leningrad/248/88) by a standard method. The virus was grown on a reinoculated Vero cell culture obtained from the cell culture bank of the Institute of Cytology of the Russian Academy of Sciences.
(§2) To cells grown on medium RPMI-1640 with 10% calf serum and placed in the wells of a 96-well plate, the virus was added to give a final concentration of 10 particles/ml and the claimed compounds dissolved in DMSO were added to give a final concentrations of 100, 10, and 1 mg/l. We used 5 individual wells for every concentration tested. The plate was incubated for 60 min at 38° C. in a CO2 incubator. After incubation the virus was removed and new medium was added that contained the claimed compounds in the test concentrations.
The results were evaluated according to the existence of a cytopathic action of the virus on the cells after 36 hours of incubation at 38° C. in the CO2 incubator.
The following controls were used in the experiment:
3. Control of antiviral activity of an antiviral preparation—acylcovir.
To access the cytopathic effect of the virus, we counted the number of unchanged cells in 100 fields formed by a specialized grid on the eyepiece of the inversion microscope.

[2] = system: primary culture of human lymphocytes; test: Interferon-inducing activity in primary culture of human lymphocytes (immunoenzyme IFN determination); type: cell-based; set-up: unit of the concentration uncertain; conditions: 24 hours of incubation
Method: Interferon synthesis induction by the claimed preparations was conducted on a primary culture of human lymphocytes (the cells in the human body are the main producers of interferon). To obtain a culture of the lymphocytes we used fresh blood (12 hours after collection) from healthy […] (not from the second group).
The lymphocyte concentration was determined after staining with methyl blue and the number of cells in the Goryaev chamber was calculated. […] The final concentration of the lymphocytes in the induction mixture was 3·10^6 cells/ml. The following controls were processed in parallel with the test samples:
The control and the experimental samples were incubated for 24 hours at 37° C. Following incubation the samples were centrifuged at 2000 g to settle out the cellular elements and the INF-containing supernatant was taken from the samples and analyzed for INF content. The cell residue was resuspended in the same volume of nutrient medium, stained with a vital dye—trypan blue—and the number of cells in the Goryaev chamber was calculated (as described above) to determine the cytotoxic activity of the preparations.
For the quantitative determination of INF in the control and experimental samples we used the ProCon IF2 Plus immunoenzyme test system sold by TOO Proteinovyi Kontur. To determine the quantity of interferon s in the sample we used a solid-phase immunoenzyme method utilizing horseradish peroxidase as the enzyme indicator. The activity of the bound peroxidase was measured using an automated photometer at a wavelength of 450 nm for the microplanchets with a microprocessor. […] On the basis of the results obtained we plotted a calibration curve that allowed us to obtain data expressed in International Units (IU) from the microprocessor of the automated photometer. The results of the analysis are expressed in IU of activity of INF per ml in the given induction system containing 3·10^6 lymphocytes/ml. Every experimental and control point was studied in 4 parallel runs.
The results obtained were analyzed statistically using the t-test and the confidence interval at p=0.05 was calculated. Analysis of the convergence of the results of the parallel tests were performed.

C. trachomatis D323 = test: Activity on Chlamydia trachomatis in McCoy and L929 cell cultures; type: cell-based; conditions: 48 hours; for number of cells in 100 fields (unchanged cells): cell control 8000, infected cell control 6400
Method: The antimicrobial activity of the claimed compounds was studied on C. trachomatis […]-a standard strain from the collection of the Department of Microbiology of the Pavlov St.-Petersburg State University. This strain was isolated from a patient with […] urethritis. […] In the work reported here we used McCoy and L929 cell cultures obtained from the Institute of Cytology of the Russian Academy of Sciences. The cells were grown in flasks of neutral glass in RPMI-1640 medium with an addition of 10% fetal calf serum. The experiment was placed in glass (toxicity-free) flat-bottomed flasks and covered with glass. The cells were introduced into the medium in a final concentration of 1·10 cells/ml. […] The sample was centrifuged at 2400 g for 60 min at room temperature and incubated at 37° C. for 2 hours. […] A parallel series of samples was run using medium without the cycloheximide in order to avoid its influence on the test substances. The samples were incubated for 48 hours in a CO2 incubator. […] The results were evaluated from the detection of chlamydia cytoplasmatic inclusion by an immunoenzyme method (MicroTrac Chlamydia trachomatis Direct Specimen Test) and from chlamydia antigens using CylaMonoScreen (Russian-British Joint Venture, 66 Regent's Park Road, London NW 1 7SX).

[3] = Acute toxicity (LD50) in mice; type: in vivo; conditions: non-linebred white, mouse, in vivo, iv; mice 18-20 g; by mouth or intravenously; observation period 14 days
Method: Acute toxicity was determined on non-linebred white mice weighing 18-20 g. Emulsions of certain of the claimed compounds were prepared in a range of concentrations: 1500, 700, 500, 100, 20 and 5 μg/kg. Five animals were used to study each specific concentration of a compound. The preparation was administered once a day by mouth or intravenously. The observation period was 14 days On days 1, 8 and 15 the animals in every group were weighed. For a control we used animals who received the emulsion without the test compounds.
All animals, both that died in the course of the experiment and those that survived to the end of the experiment, were opened to allow macroscopic examination of internal organs.
In the course of the experiment no loss of weight was observed or any change in behavior or external appearance, nor was there any loss of life. Based on the results of the macroscopic examination of internal organs of the animals in the test and the control groups, no pathological findings were made (Table 7).

[4] = system: herpes simplex type I (VPG-I/Leningrad/248/88); test: Activity on herpes simplex virus: cytopathic action of the virus on Vero cells; type: cell-based; conditions: 50 mg/l, 36 hours
Vero cell culture = test: Control of compounds (toxicity of compounds) in the herpes experiment; type: cell-based; conditions: Vero cells
Method: as §1
as §2, with “the claimed compounds dissolved in DMSO were added to give a final concentrations of 100, 10, and 1 mg/l.” left out
4. Control of compounds (toxicity of compounds).

[5] = system: McCoy and L929 cell cultures; test: Control of the test compounds on toxicity relative to cell cultures in the chlamydia experiment; type: cell-based
Method: In the work reported here we used McCoy and L929 cell cultures obtained from the Institute of Cytology of the Russian Academy of Sciences. The cells were grown in flasks of neutral glass in RPMI-1640 medium with an addition of 10% fetal calf serum. The experiment was placed in glass (toxicity-free) flat-bottomed flasks and covered with glass. The cells were introduced into the medium in a final concentration of 1·10 cells/ml. After a monolayer was obtained, standard infectious doses of chlamydia that had been maintained in a frozen state at −70° C. were added to test tubes. […] The sample was centrifuged at 2400 g for 60 min at room temperature and incubated at 37° C. for 2 hours. […] A parallel series of samples was run using medium without the cycloheximide in order to avoid its influence on the test substances. The samples were incubated for 48 hours in a CO2 incubator.

SMILES | percent protection of the cells against the virus compared to the cell culture control ([1]; 10 mg/l) | number of cells in 100 fields (unchanged cells) ([1]; 10 mg/l) | percent protection of the cells against the virus compared to the cell culture control ([1]; 100 mg/l) | number of cells in 100 fields (unchanged cells) ([1]; 100 mg/l) | Interferon-inducing activity of the drug; content of INF in induction mixture ([2]; 1 (unit uncertain)) | Interferon-inducing activity of the drug; content of INF in induction mixture ([2]; 10 (unit uncertain)) | Interferon-inducing activity of the drug; content of INF in induction mixture ([2]; 100 (unit uncertain)) | percent protection of the cells against infection (C. trachomatis D323; 30 mg/l) | number of cells in 100 fields (unchanged cells) (C. trachomatis D323; 30 mg/l) | percent protection of the cells against infection (C. trachomatis D323; 100 mg/l) | number of cells in 100 fields (unchanged cells) (C. trachomatis D323; 100 mg/l) | LD50 at 14 days [3] | percent protection of the cells against the virus compared to the cell culture control [4] | number of cells in 100 fields (unchanged cells) ([4]; cell control 12000) | cytotoxicity of compound (Vero cell culture; 50 mg/l) | cytotoxicity of compound (Vero cell culture; 100 mg/l) | cytotoxicity of compound ([5]; 30 mg/l) | cytotoxicity of compound ([5]; 100 mg/l)
Nc1nc2c(ncn2COCCO)c(=O)[nH]1 [Acyclovir, reference compound] | 80% | 9600 | – | – | – | – | – | – | – | – | – | – | – | – | – | – | – | –
O=[N+]([O-])c1ccc(C2c3c(O)nc(O)nc3Oc3nc(O)nc(O)c32)cc1 [I, 2,4,6,8-Tetrahydroxy-5-(p-nitrophenyl)-5H-pyrano[2,3-d:6,5-d′]dipyrimidine] | 60% | 7200 | 80% | 9600 | 8.0 ± 0.8 IU/3 · 10^4 lymp/ml | 28.0 ± 1.5 IU/3 · 10^4 lymp/ml | 80.0 ± 1.2 IU/3 · 10^4 lymp/ml | 70% | 7520 | 80% | 7640 | 1600 mg/kg | 70% | 8400 | – | – | – | –
Clc1nc(Cl)c2c(n1)Oc1nc(Cl)nc(Cl)c1C2c1ccccc1 [II, 5-Phenyl-2,4,6,8-tetrachloro-5H-pyrano[2,3-d:6,5-d′]dipyrimidine] | – | – | – | – | 2.0 ± 0.4 IU/3 · 10^4 lymp/ml | 16.0 ± 0.8 IU/3 · 10^4 lymp/ml | 40.0 ± 1.4 IU/3 · 10^4 lymp/ml | – | – | – | – | – | – | – | Cytotoxic | Cytotoxic | cytotoxic | cytotoxic
Oc1nc(O)c2c(n1)Oc1nc(O)nc(O)c1C2c1ccc(I)cc1 [III] | – | – | 40% | 4800 | 56.5 ± 1.0 IU/3 · 10^4 lymp/ml | 112.6 ± 2.0 IU/3 · 10^4 lymp/ml | 243.2 ± 1.0 IU/3 · 10^4 lymp/ml | – | – | – | – | – | – | – | – | – | – | –
